{
  "source": "paper PMC7559477",
  "about": "“Zinc Binding by Histatin 5 Promotes Fungicidal Membrane Disruption in C. albicans and C. glabrata” (Journal of Fungi, 2020)",
  "assay_type_in_all_cases": "cell-based",
  "key": {"[1]": {"tested_on": "Candida albicans (SC5314)", "assay": "Extracellular ATP quantification (ATP efflux), C. albicans", "conditions": "0.88 fmol/cell; for ATP efflux with added Zn2+: 1:2 ZnSO4:peptide, 10 mM NaPB pH 7.4, words = versus peptide alone; for total ATP efflux: peptide alone, 10 mM NaPB pH 7.4, luminescence", "description": "(§1) Candida albicans (SC5314) or Candida glabrata (Cg931010) cells were prepared as for peptide uptake assays, with the exception that cells were added to samples at a dosage of 0.88 fmol peptide/cell in a 1:2 ratio of ZnSO4:peptide. After samples were mixed, each was immediately centrifuged for 2 min at 6000× g at room temperature, after which 10 µL supernatant was removed to new tubes and added to 84 µL boiling TE buffer (50 mM Tris pH 7.5, 2 mM EDTA pH 8) (1-min time point). Pelleted cells were resuspended with vortexing. After this, samples were incubated at 30 °C (220 rpm) and removed from incubation for a 10-min time point. Samples in TE buffer were boiled for two more minutes and stored on ice for quantitation. Then, 25µL of each sample were added to 10 µL Staybrite adenosine triphosphate (ATP) assay mix and 65 µL assay buffer (Biovision, Milpitas, CA, USA), and luminescence was immediately measured using a FlexStation 3 plate reader (Molecular Devices, San Jose, CA, USA). Experiments were carried out on at least three separate days. Data were interpolated using a standard curve to determine moles of ATP in each sample. Significant differences between Zn^2+ added and Zn^2+-free samples at each time point were determined using one-way ANOVA and Sidak’s multiple comparisons test.\nFigure 5 Zinc induces almost immediate ATP efflux. C. albicans SC5314 bioluminescent ATP efflux assay. Cells were treated at 30 °C with 0.88 fmol/ cell. Hst 5 (red), Hst 5ΔMB (blue), or P113 (green) in 10 mM sodium phosphate buffer pH 7.4 with or without added Zn^2+ at a one to two peptides ratio (hatched). Cells were removed from samples via centrifugation and aliquots of supernatant were taken at 1 min and 10 min time points to measure extracellular ATP by luminescence. Experiments were repeated on at least three separate days and averaged. Significance of differences in ATP efflux calculated using one way ANOVA with Sidak’s multiple comparison test. ** indicates p ≤ 0.01, *** indicates p ≤ 0.001."}, "[2]": {"tested_on": "Candida glabrata (Cg931010)", "assay": "Extracellular ATP quantification (ATP efflux), C. glabrata", "conditions": "0.88 fmol/cell", "description": "as §1, with “test. […]” for “test.”"}, "[3]": {"tested_on": "Candida albicans strain SC5314", "assay": "Candidacidal assay, C. albicans", "conditions": "0.44 fmol/cell, 1 Zn2+ to 2 peptides, 1 h at 30 °C, 10 mM NaPB pH 7.4; words = versus peptide alone", "description": "Experiments were carried out with Candida albicans strain SC5314 [41] or Candida glabrata strain Cg931010 [42]. Liquid and solid pre-mixed yeast-peptone-dextrose media was used to grow yeast cells (YPD and YPD-Agar, respectively) (Fisher Scientific, Waltham, MA, USA). All media was prepared in deionized water with 50 µg/ mL supplemented uridine (Sigma Aldrich, St. Louis, MO, USA), and sterilized by autoclave. Metal salt solutions of ZnSO4·7H2O (Fisher Scientific, Waltham, MA, USA) were made in High-performance liquid chromatography (HPLC)-grade water (JT Baker, Phillipsburg, NJ, USA) and used within one day of preparation. […]\nCells (C. albicans or C. glabrata) were cultured as previously described. […] Significance of differences in killing between Zn^2+ and Zn^2+-free samples were calculated using one-way ANOVA with Sidak’s multiple comparisons test.\n(A) Candidacidal assays of C. albicans SC5314 cells with 1 h incubation at 30 °C of Hst 5 (red), Hst 5ΔMB (blue), and P113 (green) at dosages of 0.44, 3.75, 7.5, 15, and 30 fmol/cell in 10 mM sodium phosphate buffer pH 7.4. […] Significance of differences in killing activity were calculated using one way ANOVA with Sidak’s multiple comparisons test. * indicates p ≤ 0.05, ** indicates p ≤ 0.01, **** indicates p ≤ 0.0001."}},
  "note": "Where no end group is shown, it is not given here.",
  "data": [
    {"sequence": "QQQAKRHHGYKRKFQQQQQSHRGY [Hst 5ΔMB]", "values": [
      {"measurement": "ATP efflux with added Zn2+", "setting": "[1]; 1 min", "value": "did not significantly increase"},
      {"measurement": "total ATP efflux", "setting": "[1]; 1 min, at least three days, averaged", "value": 85, "unit": "pmol"},
      {"measurement": "ATP efflux with added Zn2+", "setting": "[1]; 10 min at 30 °C", "value": "did not significantly increase"},
      {"measurement": "total ATP efflux", "setting": "[1]; 10 min at 30 °C", "value": 257, "unit": "pmol"},
      {"measurement": "ATP efflux total", "setting": "[2]; 1 min, peptide alone, 10 mM NaPB pH 7.4, luminescence", "value": "≤ 30", "unit": "pmol"},
      {"measurement": "ATP efflux with added Zn2+", "setting": "[2]; 10 min, 1:2 Zn2+:peptide, 10 mM NaPB pH 7.4, words = versus 1 min", "value": "over 100 pmol"},
      {"measurement": "killing with added Zn2+", "setting": "[3]", "value": "did not significantly alter"}
    ]}
  ]
}
